Each structure is given as a SMILES string.

The subject of data set [1] is Human brain astroblastoma cell line U-87MG. As to the kind of experiment: Tumor-suppressing effect on subcutaneously transplanted U-87MG tumors in nude mice (tumor weight, IRTW). It is filed as in vivo, BALB/C-nu/nu mice. To be noted: intraperitoneal injection; for Tumor-suppressing rate (%): IRTW vs model group; for Tumor weight: U-87MG tumor, end of experiment, mean±SD. As to the method:
4. Laboratory animals • Animal species: BALB/C-nu/nu mice • Animal grade: SPF grade • Gender and quantity:42 females • Animal age at the start of an experiment: 6 weeks old • Animal body weight at the start of an experiment: 18±2 g • Animal source: Vital River Laboratory Animal Technology Co., Ltd.
Cell source and cultivation conditions: Human brain astroblastoma cell line U-87MG: which came from the Cell Resource Center of the Shanghai Institutes for Biological Sciences (SIBS); medium: MEM medium including 1% penicillin-streptomycin sulfate mixed solution (100 ×) and 10% fetal bovine serum (FBS) (from Australia); cultivation conditions: 5% CO2 and 37° C.; and the cell line was frozen by Marine Biomedical Research Institute of Qingdao.
The cell line U-87MG stored in liquid nitrogen was recovered, inoculated in a corresponding medium including 10% FBS, 100 U/mL penicillin, and 100 […] streptomycin, and cultivated in the cell culture incubator at 37° C. and 5% CO2. The cells were passaged every two days.
After the cells were passaged four times, resulting cells were collected through digestion with 0.05% trypsin-EDTA, counted under a microscope, and resuspended with a medium to obtain a cell suspension with 5×10^7 cells/mL; a mouse was routinely disinfected, and 0.2 mL of the cell suspension was subcutaneously inoculated in an axillary region of a right forelimb of the mouse; and a resulting tumor tissue was aseptically taken out, weighed, diluted with a sodium chloride injection according to a mass-to-volume ratio of 1:4, and then ground, then a mouse was routinely disinfected, and 0.2 mL of a resulting suspension was subcutaneously inoculated in an axillary region of a right forelimb of the mouse for passage, where the passage was continuously conducted twice. During this period, the mice were raised normally, and the states and tumor growth conditions of the mice were observed and recorded every week.
When a tumor volume in a tumor-bearing mouse to be passaged was about 1,200 mm 3, a tumor was ground and transplanted by a same method for molding. After the tumor inoculation was completed, a body weight of a mouse was measured, and mice were randomly selected and divided into 6 groups with 7 mice per group. After tumor colonization, the administration was started, which was recorded as Day 1 (D1). […]
After the experiment was completed, tumor tissues of animals that died unexpectedly and surviving animals that were euthanized each were peeled off and weighed, and a tumor weight difference of each group was calculated to further calculate a tumor-suppressing rate (IRTW) according to the following formula: […]
It was required in this scheme that measured and observed data results were manually recorded in appropriate forms or directly acquired by a computer. […]

Data set [2] in a line: General clinical observation and body weight of tumor-bearing mice during administration. Particulars: mouse, in vivo.
Procedure: According to body weights, animals were randomly divided into 6 groups, with 7 animals per group.
Observed animals: All animals
Observation frequency and time: The animals were observed once before each time of administration during the experiment, and administration and observation results were recorded.
Observation content: including, but not limited to, tumor growth, animal mental states, eating and drinking conditions, or the like.
Detected animals: All animals
Detection time: A body weight of an animal was measured and recorded when grouping (namely, before the first administration) (D1), before each subsequent administration, and before euthanasia.
A body weight and relevant information of an animal were measured and recorded if the animal died unexpectedly.
[3] abbreviates: 5-Fluorouracil 18 mg/kg, twice a week.

With `Cn1nnc2c(C(N)=O)ncn2c1=O` [TMZ, temozolomide], in data set [1] (TMZ 25 mg/kg, once every day), the “Tumor-suppressing rate (%)” value was determined as 99.5% and the Tumor weight is 0.0134 ± 0.0091.

Consider `O=c1[nH]cc(F)c(=O)[nH]1` [5-Fluorouracil], for which, in data set [1] (setting [3]), the “Tumor-suppressing rate (%)” value came to 52.7% and the Tumor weight worked out at 1.3305 ± 0.6525. In addition, in data set [2], the “Body weight of mice during administration” value is recorded as “reduced at a late stage of administration”.
